Data taken from BindingDB's records for patent US10519177 (Plexxikon Inc., 2019).

target: T1, Bromodomain-containing protein 4 [1-477] (Human, UniProt O60885)
T1 construct: 1-477

| SMILES | IC50 [µM] |
| --- | --- |
| COC(=O)c1ccc(-c2c[nH]c3cc(-c4c(C)noc4C)cnc23)cc1 [US10519177, Compound P-1033] | < 1 |
| Cc1noc(C)c1-c1cnc2c(I)cn(Cc3ccccc3C#N)c2c1 [US10519177, Compound P-0921] | < 1 |
| Cc1noc(C)c1-c1cnc2c(-c3ccc(C(=O)O)cc3)cn(CC3CC4(CCC4)C3)c2c1 [US10519177, Compound P-0603] | < 1 |
